# Data published in ChEMBL document CHEMBL1201862, “PubChem BioAssay data set” (2004).
#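 Exposure lasted 48 hours, with cells grown in 96-well plates and compounds tested at five concentrations. Abbreviation: GI50, concentration required for 50% inhibition of growth.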 The source made the active and inactive calls. Rule as the data show it: active = GI50 up to about 1.1 µM and inactive = higher.
# What was measured:
# Test in all cases: DTP human tumour cell line panel, 48 h
# 786-0 = tested on: 786-0
# A498 = tested on: A498
# A549 = tested on: A549
# ACHN = tested on: ACHN
# BT-549 = tested on: BT-549
# CAKI-1 = tested on: CAKI-1
# CCRF-CEM = tested on: CCRF-CEM
# COLO 205 = tested on: COLO 205
# DLD-1 = tested on: DLD-1
# DMS-114 = tested on: DMS-114
# DMS-273 = tested on: DMS-273
# DU-145 = tested on: DU-145
# EKVX = tested on: EKVX
# HCC 2998 = tested on: HCC 2998
# HCT-116 = tested on: HCT-116
# HCT-15 = tested on: HCT-15
# HL-60 = tested on: HL-60
# HOP-18 = tested on: HOP-18
# HOP-62 = tested on: HOP-62
# HOP-92 = tested on: HOP-92
# HT-29 = tested on: HT-29
# IGROV-1 = tested on: IGROV-1
# K562 = tested on: K562
# KM-20L2 = tested on: KM-20L2
# KM12 = tested on: KM12
# LOX IMVI = tested on: LOX IMVI
# LXFL 529 = tested on: LXFL 529
# M14 = tested on: M14
# M19-MEL = tested on: M19-MEL
# MCF7 = tested on: MCF7
# MDA-MB-231 = tested on: MDA-MB-231
# MDA-MB-435 = tested on: MDA-MB-435
# MDA-N = tested on: MDA-N
# MOLT-4 = tested on: MOLT-4
# Malme-3M = tested on: Malme-3M
# NCI-H226 = tested on: NCI-H226
# NCI-H23 = tested on: NCI-H23
# NCI-H460 = tested on: NCI-H460
# NCI-H522 = tested on: NCI-H522
# OVCAR-3 = tested on: OVCAR-3
# OVCAR-4 = tested on: OVCAR-4
# OVCAR-5 = tested on: OVCAR-5
# OVCAR-8 = tested on: OVCAR-8
# PC-3 = tested on: PC-3
# RPMI-8226 = tested on: RPMI-8226
# RXF 393 = tested on: RXF 393
# RXF 631 = tested on: RXF 631
# SF-268 = tested on: SF-268
# SF-295 = tested on: SF-295
# SF-539 = tested on: SF-539
# SK-MEL-28 = tested on: SK-MEL-28
# SK-MEL-2 = tested on: SK-MEL-2
# SK-MEL-5 = tested on: SK-MEL-5
# SK-OV-3 = tested on: SK-OV-3
# SN12C = tested on: SN12C
# SNB-19 = tested on: SNB-19
# SNB-75 = tested on: SNB-75
# SNB-78 = tested on: SNB-78
# SR = tested on: SR
# SW-620 = tested on: SW-620
# T47D = tested on: T47D
# TK-10 = tested on: TK-10
# U-251 = tested on: U-251
# UACC-257 = tested on: UACC-257
# UACC-62 = tested on: UACC-62
# UO-31 = tested on: UO-31
# XF498 = tested on: XF498
structure (smiles),measurement,setting,value
Nc1nc(-c2ccccc2)c(Cl)c(-c2cc(Cl)ccc2O)n1,GI50,786-0,24.4 µM (inactive)
same,GI50,A498,34.6 µM (inactive)
same,GI50,A549,19.5 µM (inactive)
same,GI50,ACHN,8.89 µM (inactive)
same,GI50,BT-549,20.4 µM (inactive)
same,GI50,CAKI-1,20.5 µM (inactive)
same,GI50,CCRF-CEM,> 96.2 µM (inactive)
same,GI50,COLO 205,> 100 µM (inactive)
same,GI50,DLD-1,26.3 µM (inactive)
same,GI50,DMS-114,26.7 µM (inactive)
same,GI50,DMS-273,29.7 µM (inactive)
same,GI50,DU-145,11.1 µM (inactive)
same,GI50,EKVX,28.1 µM (inactive)
same,GI50,HCC 2998,> 81.1 µM (inactive)
same,GI50,HCT-116,13.4 µM (inactive)
same,GI50,HCT-15,18.4 µM
same,GI50,HL-60,> 42.9 µM (inactive)
same,GI50,HOP-18,42.3 µM (inactive)
same,GI50,HOP-62,14.9 µM (inactive)
same,GI50,HOP-92,39.5 µM (inactive)
same,GI50,HT-29,49.2 µM (inactive)
same,GI50,IGROV-1,19.4 µM (inactive)
same,GI50,K562,> 46.5 µM (inactive)
same,GI50,KM-20L2,65.3 µM (inactive)
same,GI50,KM12,16.7 µM (inactive)
same,GI50,LOX IMVI,21.2 µM (inactive)
same,GI50,LXFL 529,25.9 µM (inactive)
same,GI50,M14,> 100 µM (inactive)
same,GI50,M19-MEL,> 72.1 µM (inactive)
same,GI50,MCF7,2.04 µM (inactive)
same,GI50,MDA-MB-231,48.5 µM (inactive)
same,GI50,MDA-MB-435,> 100 µM (inactive)
same,GI50,MDA-N,> 100 µM (inactive)
same,GI50,MOLT-4,> 100 µM (inactive)
same,GI50,Malme-3M,> 77.1 µM (inactive)
same,GI50,NCI-H226,24.7 µM (inactive)
same,GI50,NCI-H23,15.8 µM (inactive)
same,GI50,NCI-H460,17 µM (inactive)
same,GI50,NCI-H522,11.6 µM (inactive)
same,GI50,OVCAR-3,16.1 µM (inactive)
same,GI50,OVCAR-4,15.3 µM (inactive)
same,GI50,OVCAR-5,> 60 µM (inactive)
same,GI50,OVCAR-8,14 µM (inactive)
same,GI50,PC-3,36.1 µM (inactive)
same,GI50,RPMI-8226,> 86.7 µM (inactive)
same,GI50,RXF 393,13.8 µM (inactive)
same,GI50,RXF 631,97.7 µM (inactive)
same,GI50,SF-268,18.3 µM (inactive)
same,GI50,SF-295,48.4 µM (inactive)
same,GI50,SF-539,25.1 µM (inactive)
same,GI50,SK-MEL-28,91.2 µM (inactive)
same,GI50,SK-MEL-2,38.4 µM (inactive)
same,GI50,SK-MEL-5,14.2 µM (inactive)
same,GI50,SK-OV-3,17.3 µM (inactive)
same,GI50,SN12C,25.4 µM (inactive)
same,GI50,SNB-19,19.2 µM (inactive)
same,GI50,SNB-75,13.7 µM (inactive)
same,GI50,SNB-78,28.1 µM (inactive)
same,GI50,SR,> 100 µM (inactive)
same,GI50,SW-620,44.3 µM (inactive)
same,GI50,T47D,3.15 µM (inactive)
same,GI50,TK-10,15.5 µM (inactive)
same,GI50,U-251,15.2 µM (inactive)
same,GI50,UACC-257,> 100 µM (inactive)
same,GI50,UACC-62,50.8 µM (inactive)
same,GI50,UO-31,16 µM (inactive)
same,GI50,XF498,28.8 µM (inactive)
CC(=O)OC1C/C(C)=C/[C@H](O)CC(C)/C=C/[C@@]2(C)CCC(C(C)(C)O)C12 (stereo partly drawn),GI50,786-0,> 100 µM (inactive)
same,GI50,A498,> 100 µM (inactive)
same,GI50,A549,> 100 µM (inactive)
same,GI50,ACHN,> 100 µM (inactive)
same,GI50,CAKI-1,> 100 µM (inactive)
same,GI50,CCRF-CEM,> 100 µM (inactive)
same,GI50,COLO 205,> 100 µM (inactive)
same,GI50,DLD-1,> 100 µM (inactive)
same,GI50,DMS-114,> 100 µM (inactive)
same,GI50,DMS-273,> 100 µM (inactive)
same,GI50,EKVX,> 100 µM (inactive)
same,GI50,HCC 2998,> 100 µM (inactive)
same,GI50,HCT-116,> 100 µM (inactive)
same,GI50,HCT-15,> 100 µM
same,GI50,HL-60,> 100 µM (inactive)
same,GI50,HOP-18,> 100 µM (inactive)
same,GI50,HOP-62,> 100 µM (inactive)
same,GI50,HOP-92,> 100 µM (inactive)
same,GI50,HT-29,> 100 µM (inactive)
same,GI50,IGROV-1,> 100 µM (inactive)
same,GI50,K562,> 100 µM (inactive)
same,GI50,KM-20L2,> 100 µM (inactive)
same,GI50,KM12,> 100 µM (inactive)
same,GI50,LOX IMVI,> 100 µM (inactive)
same,GI50,LXFL 529,> 100 µM (inactive)
same,GI50,M14,> 100 µM (inactive)
same,GI50,M19-MEL,> 100 µM (inactive)
same,GI50,MOLT-4,> 100 µM (inactive)
same,GI50,Malme-3M,> 100 µM (inactive)
same,GI50,NCI-H226,> 100 µM (inactive)
same,GI50,NCI-H23,> 100 µM (inactive)
same,GI50,NCI-H460,> 100 µM (inactive)
same,GI50,OVCAR-3,> 100 µM (inactive)
same,GI50,OVCAR-4,> 100 µM (inactive)
same,GI50,OVCAR-5,> 100 µM (inactive)
same,GI50,OVCAR-8,> 100 µM (inactive)
same,GI50,RPMI-8226,> 100 µM (inactive)
same,GI50,RXF 393,> 100 µM (inactive)
same,GI50,RXF 631,> 100 µM (inactive)
same,GI50,SF-268,> 100 µM (inactive)
same,GI50,SF-295,> 100 µM (inactive)
same,GI50,SF-539,> 100 µM (inactive)
same,GI50,SK-MEL-28,> 100 µM (inactive)
same,GI50,SK-MEL-2,> 100 µM (inactive)
same,GI50,SK-MEL-5,> 100 µM (inactive)
same,GI50,SK-OV-3,> 100 µM (inactive)
same,GI50,SN12C,> 100 µM (inactive)
same,GI50,SNB-19,> 100 µM (inactive)
same,GI50,SNB-75,> 100 µM (inactive)
same,GI50,SNB-78,> 100 µM (inactive)
same,GI50,SR,> 100 µM (inactive)
same,GI50,SW-620,> 100 µM (inactive)
same,GI50,TK-10,> 100 µM (inactive)
same,GI50,U-251,> 100 µM (inactive)
same,GI50,UACC-257,> 100 µM (inactive)
same,GI50,UACC-62,> 100 µM (inactive)
same,GI50,UO-31,> 100 µM (inactive)
same,GI50,XF498,> 100 µM (inactive)
O=C1c2c(O)cc(O)cc2OC(c2ccc(O)cc2O)C1O (stereo not drawn),GI50,A549,79.6 µM (inactive)
same,GI50,CAKI-1,59.3 µM (inactive)
same,GI50,DLD-1,50.9 µM (inactive)
same,GI50,DMS-114,32.5 µM (inactive)
same,GI50,EKVX,60.8 µM (inactive)
same,GI50,HOP-18,31.8 µM (inactive)
same,GI50,KM-20L2,54 µM (inactive)
same,GI50,KM12,60.4 µM (inactive)
same,GI50,LXFL 529,36.1 µM (inactive)
same,GI50,M19-MEL,29.9 µM (inactive)
same,GI50,MOLT-4,28.6 µM (inactive)
same,GI50,NCI-H23,57.5 µM (inactive)
same,GI50,NCI-H460,57.8 µM (inactive)
same,GI50,RXF 631,40.5 µM (inactive)
same,GI50,SF-295,56.4 µM (inactive)
same,GI50,SNB-78,42.1 µM (inactive)
same,GI50,SR,25.7 µM (inactive)
same,GI50,TK-10,57.4 µM (inactive)
